# Laboratory results: PMC8617681 (Pharmaceuticals, 2021)
# Columns and labels:
# [1] = test system: RET-mutant medullary thyroid cancer; details: clinical phase 1 study; cited from earlier work
# [2] = molecular target: T1, human OATP1A2 (Homo sapiens, UniProt P46721); assay: Cellular uptake in OATP1A2-overexpressing HEK293 cells; type: in vitro ADME; details: 5 µM, 2.5 min incubation, HEK293 OATP1A2
# T1 construct: Werner Siegmund and Dr. Markus Keiser (University of Greifswald); host or cells: HEK293
# T1 sequence (P46721 1-670): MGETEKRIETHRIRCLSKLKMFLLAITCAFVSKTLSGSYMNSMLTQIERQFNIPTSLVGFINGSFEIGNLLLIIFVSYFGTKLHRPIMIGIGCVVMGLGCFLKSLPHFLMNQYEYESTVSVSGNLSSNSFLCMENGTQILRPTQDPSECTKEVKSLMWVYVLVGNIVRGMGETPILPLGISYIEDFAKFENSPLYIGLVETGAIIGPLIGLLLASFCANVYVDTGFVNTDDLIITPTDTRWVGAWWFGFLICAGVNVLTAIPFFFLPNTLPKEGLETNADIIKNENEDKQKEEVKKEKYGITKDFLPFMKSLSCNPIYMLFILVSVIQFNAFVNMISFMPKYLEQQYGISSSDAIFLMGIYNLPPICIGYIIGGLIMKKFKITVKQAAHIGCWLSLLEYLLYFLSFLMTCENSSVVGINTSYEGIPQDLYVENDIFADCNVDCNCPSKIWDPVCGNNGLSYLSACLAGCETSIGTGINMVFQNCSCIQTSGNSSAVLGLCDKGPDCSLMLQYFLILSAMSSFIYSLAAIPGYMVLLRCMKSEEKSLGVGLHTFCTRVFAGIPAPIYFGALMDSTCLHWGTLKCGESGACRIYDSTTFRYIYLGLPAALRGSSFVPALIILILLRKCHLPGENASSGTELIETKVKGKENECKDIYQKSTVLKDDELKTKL
# Method: HEK293 cells, vector-transfected or human (h)SLCO1A2, hSLCO1B1 or hSLCO1B3 cDNA-transfected were kind gifts from Prof. Werner Siegmund and Dr. Markus Keiser (University of Greifswald, Greifswald, Germany). All the HEK293 cell lines were maintained in DMEM supplemented with 10% (v/v) FBS, 1% penicillin–streptomycin mix at 37 °C in 5% (v/v) CO2 and 500 μg/mL G418. Cells were first seeded in 12-well plates [coated with 50 mg/L poly (l-lysine) and 50 mg/L poly (l-ornithine)] at a density of 1.0 × 10^5 cells/well. For the uptake study, in order to induce the expression of OATP transporters, the cell culture medium was replaced with culture medium supplemented with 5 mM sodium butyrate 24 h before performing the uptake assay.
# The uptake transport study was performed as described previously. […] The Krebs–Henseleit solution was prepared from Krebs–Henseleit-buffer modified powder and supplemented with 25 mM NaHCO3 and 2.5 mM CaCl2 adjusted to pH 6.4 with 1 M HCL. At 2.5 min, the incubation buffer was removed, and uptake was terminated by adding 1 mL of ice-cold Krebs–Henseleit buffer, followed by two times washing with 1 mL of ice-cold Krebs–Henseleit buffer. […] The cellular protein amount was determined by the Bradford method using 10 μL of the cell lysates with bovine serum albumin as a standard.
# [3] = 8 h pharmacokinetic study in wild-type, Cyp3a-/- and Cyp3aXAV mice; details: mouse, in vivo, po, 10 mg/kg; for concentration at 8 h / AUC(0-t) / Cmax / Tmax / SIC percentage of dose: female; for SIC percentage of dose: 8 h
# Method: Many drugs and prodrugs are metabolized by CYP3A, which can therefore restrict their oral exposure.
# Mice were housed and handled according to institutional guidelines complying with Dutch and EU legislation. All experimental animal protocols were evaluated and approved by the institutional animal care and use committee. Wild-type, Abcb1a/1b^-/-, Abcg2^-/-, Abcb1a/1b; Abcg2^-/-, Slco1a/1b^-/- male mice, and Cyp3a^-/- and Cyp3aXAV female mice, all of a >99% FVB genetic background, were used between 9 and 16 weeks of age. […] All experimental animal protocols (WP9450, 9669, 9760), including power calculations, designed under the nationally approved DEC/CCD project AVD301002016595, were evaluated and approved by the institutional animal care and use committee of The Netherlands Cancer Institute. […]
# (§1) For the 4 h transporter experiments, tail-vein blood samples were collected at 0.125, 0.25, 0.5, 1, and 2 h time points after oral administration, respectively. For the CYP3A 8 h experiments, tail-vein blood sampling was performed at 0.25, 0.5, 1, 2, and 4 h, respectively. While for elacridar inhibition experiments, tail-vein blood samples were collected at 0.125, 0.25, 0.5, and 1 h time points after oral administration, respectively. Blood sample collection was performed using microvettes containing dipotassium EDTA. At the last time point in each experiment (2, 4 or 8 h), mice were anesthetized with 5% isoflurane and blood was collected by cardiac puncture. Blood samples were collected in Eppendorf tubes containing heparin as an anticoagulant. The mice were then sacrificed by cervical dislocation and brain, liver, kidney, lung, small intestine and testis were rapidly removed. Plasma was isolated from the blood by centrifugation at 9000× g for 6 min at 4 °C, and the plasma fraction was collected and stored at −30 °C until analysis. Organs were homogenized with 4% (w/v) bovine serum albumin and stored at −30 °C until analysis.
# Pharmacokinetic parameters were calculated by noncompartmental methods using the PK solver software. The area under the plasma concentration–time curve (AUC) was calculated using the trapezoidal rule, without extrapolating to infinity. The peak plasma concentration (Cmax) and the time of maximum plasma concentration (Tmax) were estimated from the original (individual mouse) data. One-way analysis of variance (ANOVA) was used when multiple groups were compared and the Tukey post hoc correction was used to accommodate multiple testing. The two-sided unpaired Student’s t-test was used when treatments or differences between two specific groups were compared using the software GraphPad Prism 8 (GraphPad Software Inc., La Jolla, CA, USA). All the data were log-transformed before statistical tests were applied. Differences were considered statistically significant when p < 0.05. All data are presented as geometric mean ± SD.
# [4] = Oral selpercatinib pharmacokinetics in mice, summarised over the studies; type: in vivo; details: FVB (wild-type), mouse, plasma, 10 mg/kg oral, average
# Method: as §1
# Pharmacokinetic parameters were calculated by noncompartmental methods using the PK solver software. The area under the plasma concentration–time curve (AUC) was calculated using the trapezoidal rule, without extrapolating to infinity. […]
smiles,measurement,setting,value
COc1ccc(CN2C3CC2CN(c2ccc(-c4cc(OCC(C)(C)O)cn5ncc(C#N)c45)cn2)C3)cn1 [selpercatinib],overall response rate,[1],45%
same,uptake compared to vector control cells,[2],did not observe any significant increase in the uptake
same,concentration at 8 h,"[3]; Cyp3a-/- (>99% FVB genetic background), CLiver",7900 ± 1270 ng/g
same,concentration at 8 h,"[3]; Cyp3a-/- (>99% FVB genetic background), CSI (small intestine tissue concentration)",6380 ± 930 ng/g
same,concentration at 8 h,"[3]; Cyp3a-/- (>99% FVB genetic background), Cbrain",86.2 ± 24.2 ng/g
same,concentration at 8 h,"[3]; Cyp3aXAV (>99% FVB genetic background), CLiver",4390 ± 755 ng/g
same,concentration at 8 h,"[3]; Cyp3aXAV (>99% FVB genetic background), CSI (small intestine tissue concentration)",5030 ± 347 ng/g
same,AUC(0-t),"[3]; FVB, Cyp3a-/-",72200 ng·h/mL
same,Cmax,"[3]; FVB, Cyp3a-/-",12300 ng/mL
same,Tmax,"[3]; FVB, Cyp3a-/-",1.4 ± 1.3 h
same,SIC percentage of dose,"[3]; FVB, Cyp3a-/-",1.4 ± 0.6 %
same,concentration at 8 h,"[3]; FVB, Cyp3a-/-, CSIC (small intestine contents concentration)",44900 ng/g
same,AUC(0-t),"[3]; FVB, wild-type",52300 ng·h/mL
same,Cmax,"[3]; FVB, wild-type",8560 ± 1300 ng/mL
same,Tmax,"[3]; FVB, wild-type",1.5 ± 1.3 h
same,SIC percentage of dose,"[3]; FVB, wild-type",2.5 ± 0.9%
same,concentration at 8 h,"[3]; FVB, wild-type, CSIC (small intestine contents concentration)",83900 ng/g
same,concentration at 8 h,"[3]; FVB, wild-type, Cbrain",82.4 ± 16.8 ng/g
same,AUC(0-t),[3],45800 ng·h/mL
same,Cmax,[3],9480 ± 548 ng/mL
same,Tmax,[3],0.29 ± 0.1 h
same,SIC percentage of dose,[3],1.5 ± 0.5%
same,concentration at 8 h,[3]; CSIC (small intestine contents concentration),48500 ng/g
same,concentration at 8 h,[3]; Cbrain,51 ± 15.2 ng/g
same,concentration at 8 h,"[3]; wild-type (>99% FVB genetic background), CLiver",8260 ± 1620 ng/g
same,concentration at 8 h,"[3]; wild-type (>99% FVB genetic background), CSI (small intestine tissue concentration)",7300 ± 1120 ng/g
same,abnormal external behavior (acute toxicity),[3],did not observe any abnormal external behavior
same,Cmax,[4],~8000 ng/mL
